Measured values as given in publication PMC10184313, “Inhibition of Thiamine Diphosphate-Dependent Enzymes by Triazole-Based Thiamine Analogues” (ACS Medicinal Chemistry Letters, 2023).

Tests used:
[1] = biological target: T1, porcine PDHc E1 (Sus scrofa, UniProt P29804); assay: PDHc E1 inhibitory activity assay (DCPIP reduction); type: biochemical; conditions: for L.E. (ligand efficiency) PDHc E1: binding energy in kcal mol^–1 derived from the KI value per heavy atom
T1 sequence (P29804 31-390): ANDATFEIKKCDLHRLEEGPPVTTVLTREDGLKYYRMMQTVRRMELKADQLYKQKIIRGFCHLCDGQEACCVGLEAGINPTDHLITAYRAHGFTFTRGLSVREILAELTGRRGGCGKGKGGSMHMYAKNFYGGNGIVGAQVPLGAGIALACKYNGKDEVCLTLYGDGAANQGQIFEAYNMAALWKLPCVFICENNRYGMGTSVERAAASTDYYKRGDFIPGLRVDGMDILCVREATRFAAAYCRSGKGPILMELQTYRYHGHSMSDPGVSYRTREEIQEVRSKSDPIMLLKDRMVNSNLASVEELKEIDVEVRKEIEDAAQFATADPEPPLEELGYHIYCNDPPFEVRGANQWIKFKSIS
Procedure: Enzyme assays – Methods and Results S1
Ligand efficiencies – Calculations S3 […]
Enzyme assays (Methods and Results)
PDHc E1 inhibitory activity assay. Porcine PDHc E1 was purchased from Sigma. Its activity was […]
determined by monitoring 2,6-dichlorophenolindophenol (DCPIP) reduction at 600 nm using a […]
microplate reader (CLARIOstar) and conducted as described 1,2 with some modifications. The percentage inhibition of compounds against porcine PDHc E1 was assayed at a final concentration of 250 µM. The reaction buffer (50 mM KH 2PO4 and 1 mM MgCl 2, pH 7) contained 50 µM ThDP (or 125 µM in the competition assay), 0.25 mM DCPIP, and 2 mg/ml porcine PDHc E1. The reaction mixture […]
was preincubated at 37 °C for 30 min, then the reaction was initiated by adding pyruvate to a final […]
concentration of 50 mM. To determine the half-maximal inhibitory concentration (IC 50 ), ThDP […]
concentration was lowered to 10 µM, and inhibitor concentration was varied (0.4-200 µM). Specific […]
activity was calculated using the molar extinction coefficient of DCPIP, 21 mM -1 cm-1.3 The enzyme […]
IC50 values were calculated from non-linear regression curve fitting using GraphPad Prism.

[2] = biological target: T2, E. coli OGDHc E1 (Escherichia coli, UniProt P0AFG3); assay: E. coli OGDHc E1 inhibitory activity assay (DCPIP reduction); type: biochemical; conditions: for IC50: [ThDP] 30 μM; for Ki: determined according to the KM for ThDP
T2 sequence (P0AFG3 1-933): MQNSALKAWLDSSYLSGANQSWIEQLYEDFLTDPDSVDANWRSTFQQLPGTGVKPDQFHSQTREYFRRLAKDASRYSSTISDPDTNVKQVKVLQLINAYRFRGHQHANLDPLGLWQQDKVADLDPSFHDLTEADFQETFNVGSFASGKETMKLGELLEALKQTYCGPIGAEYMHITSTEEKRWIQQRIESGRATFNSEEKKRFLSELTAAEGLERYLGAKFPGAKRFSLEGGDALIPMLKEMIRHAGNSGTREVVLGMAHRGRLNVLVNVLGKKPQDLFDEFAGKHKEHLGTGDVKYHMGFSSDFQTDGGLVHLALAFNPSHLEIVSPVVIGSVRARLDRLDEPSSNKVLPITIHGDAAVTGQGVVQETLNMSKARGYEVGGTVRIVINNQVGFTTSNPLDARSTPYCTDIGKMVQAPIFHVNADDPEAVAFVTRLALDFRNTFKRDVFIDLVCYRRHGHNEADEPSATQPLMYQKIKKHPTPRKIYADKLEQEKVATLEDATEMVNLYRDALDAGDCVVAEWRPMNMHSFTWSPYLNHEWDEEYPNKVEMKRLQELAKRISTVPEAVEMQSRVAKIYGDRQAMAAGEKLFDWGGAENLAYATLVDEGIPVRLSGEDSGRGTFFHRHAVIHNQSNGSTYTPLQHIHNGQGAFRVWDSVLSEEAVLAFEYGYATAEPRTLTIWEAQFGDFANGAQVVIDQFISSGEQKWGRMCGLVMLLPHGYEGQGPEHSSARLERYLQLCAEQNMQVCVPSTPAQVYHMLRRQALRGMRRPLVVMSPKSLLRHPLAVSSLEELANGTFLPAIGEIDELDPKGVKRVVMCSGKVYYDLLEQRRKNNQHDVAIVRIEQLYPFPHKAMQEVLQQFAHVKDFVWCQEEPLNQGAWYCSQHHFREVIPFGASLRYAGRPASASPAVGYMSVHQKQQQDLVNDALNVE
Procedure: E. coli OGDHc E1 inhibitory activity assay. E. coli OGDHc E1 was from our previous work 5 and had been donated by R. Frank. Its activity was determined by monitoring DCPIP reduction at 600 nm using a microplate reader (CLARIOstar) and conducted as described 1,2 with some modifications. The percentage inhibition of compounds against E. coli OGDHc E1 was assayed at a final concentration of 250 µM. The reaction buffer (50 mM KH 2PO4 and 2 mM MgCl 2, pH 7) contained 50 µM ThDP (or 125 µM in the competition assay), 0.5 mM DCPIP, and 6.7 mg/ml E. coli OGDHc E1. The reaction mixture was preincubated at 37 °C for 60 min, then reaction was initiated by adding α-ketoglutarate to a final concentration of 10 mM. To determine the IC 50, ThDP concentration was lowered to 30 µM, and inhibitor concentration was varied (2-1000 µM). Specific activity was calculated using the molar […]
for the PDHc E1 assay. […] 5 […]

[3] = [Compound] = 250 μM, [ThDP] = 50 μM
[4] = increased ThDP: [Compound] = 250 μM, [ThDP] = 125 μM

COc1cccc(C(=O)NCCCCc2cn(Cc3cnc(C)nc3N)nn2)c1 [Compound 21c]
Inhibition (%) PDHc E1 [1, 3]: 60 ± 5% | inhibition at 250 µM [2, 3]: 25 ± 3%

Cc1ncc(Cn2cc(CCNC(=O)c3cccc(C#N)c3)nn2)c(N)n1 [Compound 20a]
Inhibition (%) PDHc E1 [1, 3]: 46 ± 4% | inhibition at 250 µM [2, 3]: < 20%

COc1ccc(-c2cn(CCc3cn(Cc4cnc(C)nc4N)nn3)nn2)cc1 [Compound 17a]
Inhibition (%) PDHc E1 [1, 3]: 46 ± 4% | Inhibition (%) PDHc E1 [1, 4]: <20% | inhibition at 250 µM [2, 3]: 21 ± 3% | inhibition at 250 µM [2, 4]: < 20%

Cc1ncc(Cn2cc(CCCCn3cc(-c4ccccc4)nn3)nn2)c(N)n1 [Compound 15c]
Inhibition (%) PDHc E1 [1, 3]: > 90% | Inhibition (%) PDHc E1 [1, 4]: 75 ± 4% | inhibition at 250 µM [2, 3]: < 20% | inhibition at 250 µM [2, 4]: < 20%

Cc1ncc(C[n+]2csc(CCO[P@@](=O)(O)OP(=O)(O)O)c2C)c(O)n1 [OxThDP 7b, oxythiamine diphosphate, reference compound]
Inhibition (%) PDHc E1 [1, 3]: > 90% | Inhibition (%) PDHc E1 [1, 4]: 75 ± 3% | inhibition at 250 µM [2, 3]: 62 ± 4% | inhibition at 250 µM [2, 4]: 41 ± 4%

COc1ccccc1C(=O)NCCCCc1cn(Cc2cnc(C)nc2N)nn1 [Compound 22c]
Inhibition (%) PDHc E1 [1, 3]: 58 ± 2% | inhibition at 250 µM [2, 3]: 35 ± 3%

Cc1ncc(Cn2cc(CCn3cc(-c4ccccc4)nn3)nn2)c(N)n1 [Compound 15a]
Inhibition (%) PDHc E1 [1, 3]: 45 ± 3% | Inhibition (%) PDHc E1 [1, 4]: <20% | inhibition at 250 µM [2, 3]: 23 ± 3% | inhibition at 250 µM [2, 4]: < 20%

Cc1ncc(Cn2cc(CCCCNS(=O)(=O)C(F)(F)F)nn2)c(N)n1 [Compound 18c]
Inhibition (%) PDHc E1 [1, 3]: 71 ± 3% | inhibition at 250 µM [2, 3]: 58 ± 4%

Cc1ncc(Cn2cc(CCNC(=O)c3cccc(-c4noc(C(F)(F)F)n4)c3)nn2)c(N)n1 [Compound 19a]
Inhibition (%) PDHc E1 [1, 3]: 48 ± 3% | inhibition at 250 µM [2, 3]: < 20%

Cc1ncc(Cn2cc(CCCC(=O)Nc3ccccc3N)nn2)c(N)n1 [Compound 26b]
Inhibition (%) PDHc E1 [1, 3]: 59 ± 2% | inhibition at 250 µM [2, 3]: 52 ± 2%

Cc1ncc(Cn2cc(CCCNS(=O)(=O)C(F)(F)F)nn2)c(N)n1 [Compound 18b]
Inhibition (%) PDHc E1 [1, 3]: 55 ± 2% | inhibition at 250 µM [2, 3]: 42 ± 3%

Cc1ncc(Cn2cc(CCCn3cc(-c4ccccc4)nn3)nn2)c(N)n1 [Compound 15b]
Inhibition (%) PDHc E1 [1, 3]: 65 ± 4% | Inhibition (%) PDHc E1 [1, 4]: 40 ± 4% | inhibition at 250 µM [2, 3]: < 20% | inhibition at 250 µM [2, 4]: < 20%

Cc1ncc(Cn2cc(CCCCC(=O)NO)nn2)c(N)n1 [Compound 24c]
Inhibition (%) PDHc E1 [1, 3]: > 90% | L.E. (ligand efficiency) PDHc E1 [1]: 0.48 | Inhibition (%) PDHc E1 [1, 4]: 73 ± 4% | inhibition at 250 µM [2, 3]: > 90% | IC50 [2]: 15 ± 3 µM | Ki [2]: 1.46 µM | inhibition at 250 µM [2, 4]: 82 ± 2%

COc1ccc(-c2cn(CCCc3cn(Cc4cnc(C)nc4N)nn3)nn2)cc1 [Compound 17b]
Inhibition (%) PDHc E1 [1, 3]: 71 ± 2% | Inhibition (%) PDHc E1 [1, 4]: 45 ± 3% | inhibition at 250 µM [2, 3]: < 20% | inhibition at 250 µM [2, 4]: < 20%

COc1ccccc1C(=O)NCCc1cn(Cc2cnc(C)nc2N)nn1 [Compound 22a]
Inhibition (%) PDHc E1 [1, 3]: 83 ± 4% | inhibition at 250 µM [2, 3]: 80 ± 4%

Cc1ncc(Cn2cc(CCOC(=O)c3cccc(-c4noc(C(F)(F)F)n4)c3)nn2)c(N)n1 [Compound 13a]
Inhibition (%) PDHc E1 [1, 3]: 72 ± 2% | inhibition at 250 µM [2, 3]: < 20%

Cc1ncc(Cn2cc(CCCCC(=O)Nc3ccccc3N)nn2)c(N)n1 [Compound 26c]
Inhibition (%) PDHc E1 [1, 3]: 64 ± 4% | inhibition at 250 µM [2, 3]: 30 ± 2%

Cc1ncc(Cn2cc(CCCn3cc(-c4ccc(F)cc4)nn3)nn2)c(N)n1 [Compound 16b]
Inhibition (%) PDHc E1 [1, 3]: 66 ± 4% | Inhibition (%) PDHc E1 [1, 4]: 43 ± 2% | inhibition at 250 µM [2, 3]: < 20% | inhibition at 250 µM [2, 4]: < 20%

COc1ccccc1C(=O)NCCCc1cn(Cc2cnc(C)nc2N)nn1 [Compound 22b]
Inhibition (%) PDHc E1 [1, 3]: 58 ± 3% | inhibition at 250 µM [2, 3]: 56 ± 3%

COc1ccc(-c2cn(CCCCc3cn(Cc4cnc(C)nc4N)nn3)nn2)cc1 [Compound 17c]
Ki [1]: 0.03 µM | Inhibition (%) PDHc E1 [1, 3]: > 90% | L.E. (ligand efficiency) PDHc E1 [1]: 0.34 | Inhibition (%) PDHc E1 [1, 4]: 82 ± 4% | inhibition at 250 µM [2, 3]: < 20% | inhibition at 250 µM [2, 4]: < 20%

Cc1ncc(Cn2cc(CCCCn3cc(-c4ccc(F)cc4)nn3)nn2)c(N)n1 [Compound 16c]
Inhibition (%) PDHc E1 [1, 3]: > 90% | Inhibition (%) PDHc E1 [1, 4]: 79 ± 2% | inhibition at 250 µM [2, 3]: < 20% | inhibition at 250 µM [2, 4]: < 20%

Cc1ncc(Cn2cc(CCCCO)nn2)c(N)n1 [Compound 9c]
Inhibition (%) PDHc E1 [1, 3]: 57 ± 2% | inhibition at 250 µM [2, 3]: 51 ± 2%

COc1cccc(C(=O)NCCCc2cn(Cc3cnc(C)nc3N)nn2)c1 [Compound 21b]
Inhibition (%) PDHc E1 [1, 3]: 61 ± 2% | inhibition at 250 µM [2, 3]: 58 ± 5%

Cc1ncc(Cn2cc(CCCC(=O)NO)nn2)c(N)n1 [Compound 24b]
Inhibition (%) PDHc E1 [1, 3]: > 90% | L.E. (ligand efficiency) PDHc E1 [1]: 0.50 | Inhibition (%) PDHc E1 [1, 4]: 70 ± 3% | inhibition at 250 µM [2, 3]: > 90% | IC50 [2]: 20 ± 2 µM | Ki [2]: 2.02 µM | inhibition at 250 µM [2, 4]: 78 ± 3%

Cc1ncc(Cn2cc(CCn3cc(-c4ccc(F)cc4)nn3)nn2)c(N)n1 [Compound 16a]
Inhibition (%) PDHc E1 [1, 3]: 42 ± 2% | Inhibition (%) PDHc E1 [1, 4]: <20% | inhibition at 250 µM [2, 3]: 25 ± 4% | inhibition at 250 µM [2, 4]: < 20%

Cc1ncc(Cn2cc(CCC(=O)NO)nn2)c(N)n1 [Compound 24a]
Inhibition (%) PDHc E1 [1, 3]: 77 ± 3% | inhibition at 250 µM [2, 3]: 73 ± 2%

Cc1ncc(Cn2cc(CCO)nn2)c(N)n1 [Compound 9a]
Inhibition (%) PDHc E1 [1, 3]: 55 ± 2% | inhibition at 250 µM [2, 3]: 57 ± 4%

Cc1ncc(Cn2cc(CCOC(=O)c3cccc(C#N)c3)nn2)c(N)n1 [Compound 14a]
Inhibition (%) PDHc E1 [1, 3]: 71 ± 4% | inhibition at 250 µM [2, 3]: < 20%

Cc1ncc(Cn2cc(CCCO)nn2)c(N)n1 [Compound 9b]
Inhibition (%) PDHc E1 [1, 3]: 52 ± 3% | inhibition at 250 µM [2, 3]: 50 ± 3%

COc1cccc(C(=O)NCCc2cn(Cc3cnc(C)nc3N)nn2)c1 [Compound 21a]
Inhibition (%) PDHc E1 [1, 3]: 67 ± 4% | inhibition at 250 µM [2, 3]: 63 ± 3%

Cc1ncc(Cn2cc(CCNS(=O)(=O)C(F)(F)F)nn2)c(N)n1 [Compound 18a]
Inhibition (%) PDHc E1 [1, 3]: 50 ± 2% | inhibition at 250 µM [2, 3]: 48 ± 2%

Cc1ncc(Cn2cc(CCC(=O)Nc3ccccc3N)nn2)c(N)n1 [Compound 26a]
Inhibition (%) PDHc E1 [1, 3]: 75 ± 5% | inhibition at 250 µM [2, 3]: 63 ± 2%
